Literature values in patent publication US8058260B2, “2′-C-methyl-ribofuranosyl cytidine prodrugs, pharmaceutical compositions and uses thereof” (XenoPort, Inc., priority 2006, dated 2011).
Like-named read-outs stand apart in the source and are kept apart here.

How the values were obtained:
[1] = human, in vivo
HCV = conditions: clinical evaluation as a treatment for HCV
HCV NS5B polymerase = HCV NS5B polymerase (Hepatitis C virus genotype 1b, UniProt P26663)
HCV NS5B polymerase, sequence (P26663 2420-3010): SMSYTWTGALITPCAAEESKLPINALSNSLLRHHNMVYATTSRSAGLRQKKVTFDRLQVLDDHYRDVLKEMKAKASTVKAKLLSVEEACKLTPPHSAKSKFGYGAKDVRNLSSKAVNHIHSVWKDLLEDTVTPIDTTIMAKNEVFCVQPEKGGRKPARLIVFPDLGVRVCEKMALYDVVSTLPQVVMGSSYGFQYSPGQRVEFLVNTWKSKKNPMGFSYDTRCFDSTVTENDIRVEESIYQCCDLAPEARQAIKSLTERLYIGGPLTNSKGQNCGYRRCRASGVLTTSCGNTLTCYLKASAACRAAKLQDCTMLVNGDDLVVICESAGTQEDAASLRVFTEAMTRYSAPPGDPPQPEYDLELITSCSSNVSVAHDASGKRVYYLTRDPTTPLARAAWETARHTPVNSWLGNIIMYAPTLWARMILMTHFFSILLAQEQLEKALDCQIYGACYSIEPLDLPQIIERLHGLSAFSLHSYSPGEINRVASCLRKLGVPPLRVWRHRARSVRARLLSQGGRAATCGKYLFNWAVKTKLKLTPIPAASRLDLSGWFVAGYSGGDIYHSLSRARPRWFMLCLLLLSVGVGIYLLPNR

## CC(C)[C@H](N)C(=O)O[C@@H]1[C@@H](CO)O[C@@H](n2ccc(N)nc2=O)[C@]1(C)O [NM 283, 3′-O-L-valinyl ester of β-D-2′-C-methyl-ribofuranosyl cytidine]
In vivo, po
  gastrointestinal toxicity / side-effects: gastrointestinal side-effects
[1]
  bioavailability: good bioavailability
HCV
  antiviral activity: significant antiviral activity

## C[C@@]1(O)[C@H](O)[C@@H](CO)O[C@H]1n1ccc(N)nc1=O [β-D-2′-C-methyl-ribofuranosyl cytidine]
Oral administration, nausea, vomiting, diarrhea in some patients
  gastrointestinal toxicity / side-effects: gastrointestinal (GI) toxicity
HCV NS5B polymerase
  inhibitory activity against the HCV NS5B polymerase: potent inhibitory activity
